Experimental data as given in patent US9096598B2 (Merck Sharp & Dohme Corp., priority 2011, dated 2015).
pIC50: −log10 of the molar value.

Legend:
JAK2 = target: T1, JAK2 (Homo sapiens, UniProt O60674); assay: Jak Biochemical HTRF Assay (JAK2); conditions: recombinant purified GST-tagged catalytic domain, [ATP] 8.5 μM, values given as range classes
T1 construct: recombinant purified GST-tagged catalytic domain for each enzyme; purchased Invitrogen M4290
Description: (§1) Jak Biochemical HTRF Assay Protocol
(§2) The ability of compounds to inhibit the activity of JAK1, JAK2, JAK3, and Tyk2 was measured using a recombinant purified GST-tagged catalytic domain for each enzyme (Invitrogen JAK1 #M4290, JAK2 #M4290, JAK3 #M4290, Tyk2 #M4290) in an HTRF format biochemical assay. The reactions employed a common peptide substrate, LCB-EQEDEPEGDYFEWLW-NH2 (in-house). The basic assay protocol is as follows: First, 250 nL of diluted compounds in DMSO were dispensed into the wells of a dry 384-well Black plate (Greiner #781076) using a Labcyte Echo 555 acoustic dispenser. Subsequent reagent additions employed an Agilent Bravo. Next, 18 μL of 1.11× enzyme and 1.11× substrate in 1× assay buffer (Invitrogen kinase buffer #PV3189, 2 mM DTT, 0.05% BSA) were added to the wells and shaken and then preincubated for 30 minutes at room temperature to allow compound binding to equilibrate. After equilibration, 2 μL of 10×ATP in 1× assay buffer was added to initiate the kinase reaction and the plates were shaken and then incubated at room temperature for 120 minutes. At the end of the incubation, 20 μL of 2× stop buffer (streptavidin-Dylight 650 (Thermo #84547B/100 mL), Eu-tagged pY20 antibody (Perkin Elmer #AD0067), EDTA, HEPES, and Triton) was added to quench the reaction. Plates were shaken and centrifuged and then incubated 60 minutes at room temperature and then read on a Perkin Elmer Envision (λex=337 nm, λem=665 and 615 nm, TRF delay time=20 μs). HTRF signal=10,000*665 nm reading/615 nm reading. After normalization to untreated controls, the percent inhibition of the HTRF signal at each compound concentration was calculated. The plot of percent inhibition versus the log of compound concentration was fit with a 4-parameter dose response equation to calculate IC50 values.
(§3) Final reaction conditions were:
(§4) Examples of the instant invention were evaluated in JAK2 and JAK3 in vitro binding assays. Table 13 tabulates the biological data disclosed for the instant invention as a range of JAK2 and JAK3 IC50 values (A: IC50≦10 nM; B: 10 nM>IC50≦500 nM C: IC50>500 nM).

JAK3 = target: T2, JAK3 (Homo sapiens, UniProt P52333); assay: Jak Biochemical HTRF Assay (JAK3); conditions: recombinant purified GST-tagged catalytic domain, [ATP] 2.9 μM, values given as range classes
T2 construct: recombinant purified GST-tagged catalytic domain for each enzyme; purchased Invitrogen M4290
T2 sequence (P52333 822-1111 limits assumed): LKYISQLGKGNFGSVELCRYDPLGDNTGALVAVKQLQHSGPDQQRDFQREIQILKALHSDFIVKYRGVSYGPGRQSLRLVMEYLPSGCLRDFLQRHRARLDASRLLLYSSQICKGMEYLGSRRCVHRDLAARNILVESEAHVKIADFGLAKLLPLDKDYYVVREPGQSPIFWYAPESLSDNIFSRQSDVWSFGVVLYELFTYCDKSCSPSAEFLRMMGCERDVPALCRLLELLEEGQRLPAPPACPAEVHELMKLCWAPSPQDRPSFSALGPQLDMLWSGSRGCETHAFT
Description: as §1, §2, §3, §4

T1 sequence (O60674 849-1124 limits assumed): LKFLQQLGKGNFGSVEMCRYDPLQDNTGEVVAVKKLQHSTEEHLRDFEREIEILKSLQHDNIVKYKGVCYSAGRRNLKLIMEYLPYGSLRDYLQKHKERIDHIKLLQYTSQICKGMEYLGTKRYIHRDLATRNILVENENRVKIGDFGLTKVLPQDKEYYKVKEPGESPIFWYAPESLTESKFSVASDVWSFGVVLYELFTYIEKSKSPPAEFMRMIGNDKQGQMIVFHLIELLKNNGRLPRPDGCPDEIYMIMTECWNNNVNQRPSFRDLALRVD

Structure (SMILES) | pIC50 (JAK2) | pIC50 (JAK3)
CC(C)[C@@H](Nc1cncc(-c2c[nH]c3ncc(C(=O)NC4CCOCC4)cc23)c1)C(=O)NCC(F)(F)F [Example 3-5, 3-[5-({(1R)-2-methyl-1-[(2,2,2-trifluoroethyl)carbamoyl]propyl}amino)pyridin-3-yl]-N-(tetrahydro-2H-pyran-4-yl)-1H-pyrrolo[2,3-b]pyridine-5-carboxamide] | ≥ 8.00 | ≥ 8.00
C[C@@H](Nc1cncc(-c2c[nH]c3ncc(C#N)cc23)c1)C(=O)NCC(F)(F)F [Example 1-32, N~2~-[5-(5-cyano-1H-pyrrolo[2,3-b]pyridin-3-yl)pyridin-3-yl]-N-(2,2,2-trifluoroethyl)-D-alaninamide] | 6.30 to 8.00 | ≥ 8.00
N#Cc1cnc2[nH]cc(-c3nncc(N4CCCC4c4nccs4)n3)c2c1 (stereo not drawn) [Example 1-12, 3-{5-[2-(1,3-thiazol-2-yl)pyrrolidin-1-yl]-1,2,4-triazin-3-yl}-1H-pyrrolo[2,3-b]pyridine-5-carbonitrile] | 6.30 to 8.00 | 6.30 to 8.00
CC(C)(Nc1cncc(-c2c[nH]c3ncc(F)cc23)c1)C(=O)NCC(F)(F)F [Example 1-43, N~2~-[5-(5-fluoro-1H-pyrrolo[2,3-b]pyridin-3-yl)pyridin-3-yl]-2-methyl-N-(2,2,2-trifluoroethyl)alaninamide] | 6.30 to 8.00 | ≥ 8.00
C[C@@H](Nc1cnnc(-c2c[nH]c3ncc(C(N)=O)cc23)n1)C(=O)NCC(F)(F)F [Example 1-14, 3-[5-({(1R)-1-methyl-2-oxo-2-[(2,2,2-trifluoroethyl)amino]ethyl}amino)-1,2,4-triazin-3-yl]-1H-pyrrolo[2,3-b]pyridine-5-carboxamide] | 6.30 to 8.00 | ≥ 8.00
CC(C)C(Nc1cncc(-c2c[nH]c3ncc(OC4CCN(C)CC4)cc23)c1)C(=O)NCC(F)(F)F (stereo not drawn) [Example 2-16, N~2~-(5-{5-[(1-methylpiperidin-4-yl)oxy]-1H-pyrrolo[2,3-b]pridin-3-yl}pyridin-3-yl)-N-(2,2,2-trifluoroethyl)valinamide] | 6.30 to 8.00 | ≥ 8.00
CC(C)[C@H](Nc1cncc(-c2c[nH]c3ncc(OCCN(C)C)cc23)c1)C(=O)NCC(F)(F)F [Example 2-13, N~2~-(5-{5-[2-(dimethylamino)ethoxy]-1H-pyrrolo[2,3-b]pyridin-3-yl}pyridin-3-yl)-N-(2,2,2-trifluoroethyl)valinamide] | < 6.30 | 6.30 to 8.00
NC(=O)c1cnc2[nH]cc(-c3nncc(N[C@@H]4CCCC[C@@H]4C(=O)NCC(F)(F)F)n3)c2c1 [Example 1-23, 3-[5-({(1R,2S)-2-[(2,2,2-trifluoroethyl)carbamoyl]cyclo-hexyl}amino)-1,2,4-triazin-3-yl]-1H-pyrrolo[2,3-b]pyridine-5-carboxamide] | 6.30 to 8.00 | 6.30 to 8.00
CNC(=O)c1cnc2[nH]cc(-c3cncc(N[C@@H](C(=O)NCC(F)(F)F)C(C)C)c3)c2c1 [Example 3-8, N-methyl-3-[5-({(1R)-2-methyl-1-[(2,2,2-trifluoroethyl)carbamoyl]propyl}amino)pyridin-3-yl]-1H-pyrrolo[2,3-b]pyridine-5-carboxamide] | 6.30 to 8.00 | ≥ 8.00
CC1c2ncc(C(F)(F)F)n2CCN1c1cnnc(-c2c[nH]c3ncc(Cl)cc23)n1 (stereo not drawn) [Example 1-4, 7-[3-(5-chloro-1H-pyrrolo[2,3-b]pyridin-3-yl)-1,2,4-triazin-5-yl]-8-methyl-3-(trifluoromethyl)-5,6,7,8-tetrahydroimidazo[1,2-a]pyrazine] | 6.30 to 8.00 | ≥ 8.00
CC(C)[C@H](Nc1cncc(-c2c[nH]c3ncc(OCCc4ccccn4)cc23)c1)C(=O)NCC(F)(F)F [Example 2-12, N~2~-{5-[5-(2-pyridin-2-ylethoxy)-1H-pyrrolo[2,3-b]pyridin-3-yl]pyridin-3-yl}-N-(2,2,2-trifluoroethyl)valinamide] | 6.30 to 8.00 | ≥ 8.00
CC(C)(O)[C@@H](Nc1cncc(-c2c[nH]c3ncc(Cl)cc23)c1)C(=O)NCC(F)(F)F [Example 1-49, N~2~-[5-(5-chloro-1H-pyrrolo[2,3-b]pyridin-3-yl)pyridin-3-yl]-3-hydroxy-N-(2,2,2-trifluoroethyl)-D-valinamide] | 6.30 to 8.00 | ≥ 8.00
CC(C)[C@H](Nc1cncc(-c2c[nH]c3ncc(OCCCN(C)C)cc23)c1)C(=O)NCC(F)(F)F [Example 2-14, N~2~-(5-{5-[3-(dimethylamino)propoxy]-1H-pyrrolo[2,3-b]pyridin-3-yl}pyridin-3-yl)-N-(2,2,2-trifluoroethyl)valinamide] | 6.30 to 8.00 | ≥ 8.00
CC(C)[C@@H](Nc1cncc(-c2c[nH]c3ncc(C(=O)NCC4(O)CC4)cc23)c1)C(=O)NCC(F)(F)F [Example 3-14, N-[(1-hydroxycyclopropyl)methyl]-3-[5-({(1R)-2-methyl-1-[(2,2,2-trifluoroethyl)carbamoyl]propyl}amino)pyridin-3-yl]-1H-pyrrolo[2,3-b]pyridine-5-carboxamide] | ≥ 8.00 | ≥ 8.00
CC(C)[C@H](Nc1cncc(-c2c[nH]c3ncc(OCCN4CCCC4=O)cc23)c1)C(=O)NCC(F)(F)F [Example 2-10, N~2~-(5-{5-[2-(2-oxopyrrolidin-1-yl)ethoxy]-1H-pyrrolo[2,3-b]pyridin-3-yl}pyridin-3-yl)-N-(2,2,2-trifluoroethyl)valinamide] | 6.30 to 8.00 | ≥ 8.00
CC(C)[C@@H](Nc1cncc(-c2c[nH]c3ncc(Cl)cc23)c1)C(=O)NCC(F)(F)F [Example 1-51, N~2~-[5-(5-chloro-1H-pyrrolo[2,3-b]pyridin-3-yl)pyridin-3-yl]-N-(2,2,2-trifluoroethyl)-D-valinamide] | ≥ 8.00 | ≥ 8.00

Further lines, results first:

pIC50 (JAK2) | pIC50 (JAK3) | Structure (SMILES)
6.30 to 8.00 | ≥ 8.00 | CC(C)NC(=O)Nc1cnc2[nH]cc(-c3cncc(N[C@H](C(=O)NCC(F)(F)F)C(C)C)c3)c2c1 [Example 6-1, N^2-(5-{5-[(propan-2-ylcarbamoyl)amino]-1H-pyrrolo[2,3-b]pyridin-3-yl}pyridin-3-yl)-N-(2,2,2-trifluoroethyl)valinamide]
< 6.30 | 6.30 to 8.00 | CC(C)C(Nc1cncc(-c2c[nH]c3ncc(CNC(=O)C4CCCC4)cc23)c1)C(=O)NCC(F)(F)F (stereo not drawn) [Example 10-1, N-((3-(5-(3-methyl-1-oxo-1-(2,2,2-trifluoroethylamino)butan-2-ylamino)pyridin-3-yl)-1H-pyrrolo[2,3-b]pyridin-5-yl)methyl)cyclopentanecarboxamide]
6.30 to 8.00 | ≥ 8.00 | CNC(=O)Nc1cnc2[nH]cc(-c3cncc(N[C@H](C(=O)NCC(F)(F)F)C(C)C)c3)c2c1 [Example 6-5, N~2~-(5-{5-[(methylcarbamoyl)amino]-1H-pyrrolo[2,3-b]pyridin-3-yl}pyridin-3-yl)-N-(2,2,2-trifluoroethyl)valinamide]
6.30 to 8.00 | ≥ 8.00 | CC(C)[C@@H](Nc1cncc(-c2c[nH]c3ncc(COCCN4CCOCC4)cc23)c1)C(=O)NCC(F)(F)F [Example 9-4, N~2~-(5-{5-[(2-morpholin-4-ylethoxy)methyl]-1H-pyrrolo[2,3-b]pyridin-3-yl}pyridin-3-yl)-N-(2,2,2-trifluoroethyl)-D-valinamide]
6.30 to 8.00 | 6.30 to 8.00 | COC(=O)Nc1cnc2[nH]cc(-c3cncc(NC(C(=O)NCC(F)(F)F)C(C)C)c3)c2c1 (stereo not drawn) [Example 7-1, Methyl {3-[5-({3-methyl-1-oxo-1-[(2,2,2-trifluoroethyl)amino]butan-2-yl}amino)pyridin-3-yl]-1H-pyrrolo[2,3-b]pyridin-5-yl}carbamate]
6.30 to 8.00 | ≥ 8.00 | CC(C)[C@H](Nc1cncc(-c2c[nH]c3ncc(NC(=O)CO)cc23)c1)C(=O)NCC(F)(F)F [Example 5-7, N~2~-(5-{5-[(hydroxyacetyl)amino]-1H-pyrrolo[2,3-b]pyridin-3-yl}pyridin-3-yl)-N-(2,2,2-trifluoroethyl)valinamide]
6.30 to 8.00 | ≥ 8.00 | CC(C)C(Nc1cncc(-c2c[nH]c3ncc(S(N)(=O)=O)cc23)c1)C(=O)NCC(F)(F)F (stereo not drawn) [Example 4-1, 3-Methyl-2-(5-(5-sulfamoyl-1H-pyrrolo[2,3-b]pyridin-3-yl)pyridin-3-ylamino)-N-(2,2,2-trifluoroethyl)butanamide]
< 6.30 | 6.30 to 8.00 | CCCC(=O)NCc1cnc2[nH]cc(-c3cncc(N[C@H](C(=O)NCC(F)(F)F)C(C)C)c3)c2c1 [Example 10-9, N~2~-(5-{5-[(butanoylamino)methyl]-1H-pyrrolo[2,3-b]pyridin-3-yl}pyridin-3-yl)-N-(2,2,2-trifluoroethyl)valinamide]
